Measured values published in US20190083646A1, “MUTANT SMOOTHENED AND METHODS OF USING THE SAME” (CURIS, INC., priority 2016, published 2019).

Experiments:
[1] = tested on: metastatic basal cell carcinoma (mBCC); experiment: Vismodegib treatment of metastatic basal cell carcinoma (mBCC) patients, overall response assessment; type: in vivo, human
Description: Clinical responses to targeted therapies (e.g., cancer therapies) can be short-lived due to the acquisition of genetic alterations that confer drug resistance. Identification of resistance mechanisms will guide novel therapeutic strategies. Inappropriate Hh signaling is linked to several cancers, including basal cell carcinoma (BCC). Loss-of-function mutations in PTCH (˜90%) and activating mutations in SMO (˜10%) are the primary drivers in BCC. Clinical mechanisms of resistance to vismodegib (GDC-0449) were identified by assessing vismodegibsensitivity and mutation status of BCCs from patients using the FoundationOne™ next-generation sequencing (NGS) platform. FIG. 1 lists characteristics of the mBCC (metastatic basal cell carcinoma) patients treated with vismodegib.
Patient Treatment Histories
008: patient with metastatic basal cell carcinoma (mBCC). No prior surgery for BCC was reported. Prior systemic therapy for metastatic BCC included the following agent: anthracycline chemotherapy. Sites of metastases at the time of screening included soft tissue in the right hemi pelvis. Measurable lesions were identified on the skin/soft tissue next to the right OS ilium, next to the right femur and ventral surface of the OS sacrum. Non-measurable lesions were identified on the bone destruction region in OS ilium and OS sacrum. The patient received their first dose of 150 mg vismodegib Study Day 1.
001: patient with metastatic basal cell carcinoma (mBCC). Prior surgery for BCC included 6 skin neoplasm excisions. No prior topical or systemic therapy for BCC was reported. Sites of metastases at the time of screening included skin of head. Measurable lesions were identified on skin of head (lymph nodes [besides trachea and infracarinal]). The patient received their first dose of 150 mg vismodegib on Study Day 1.
002: patient with metastatic basal cell carcinoma (mBCC). Prior surgery for BCC included skin neoplasm excision. No prior topical or systemic therapy for BCC was reported. Sites of metastases at the time of screening (24 Jan. 2012) included bone. Measurable lesions were identified on lung (S 5 right side and S 10 left side), os sacrum, vertebral 9 rib, right femur, occipital, and lymph nodes (mediastenum, retrocaval). The patient received their first dose of 150 mg vismodegib on Study Day 1.
011: patient with metastatic basal cell carcinoma (mBCC). No prior surgery for BCC was reported. No prior topical or systemic therapy for BCC was reported. Sites of metastases at the time of screening included bone and lung. Measurable lesion was identified on the skin of trunk. The patient received their first dose of 150 mg vismodegib on Study Day 1.
005: patient with metastatic basal cell carcinoma (mBCC). Prior surgery for BCC included skin neoplasm excision. Prior radiation directed to head and neck (total dose: 50 Gy). No prior topical or systemic therapy for BCC was reported. Sites of metastasis at the time of screening included neck, sternum and left clavicle. Measurable lesions were identified on neck (supraclavicular region), lung (segment 10 and 3). Non-measurable lesion was identified on sternocleidomastoid muscle and bone (left clavicle and sternum). The patient received their first dose of 150 mg vismodegib on Study Day 1.

SMO-G529S = biological target: T1, SMO-G529S (Homo sapiens, UniProt Q99835, G529S); experiment: GLI-luciferase reporter assay, vismodegib dose response; type: cell-based; conditions: C3H10T1/2 cells transfected with SMO-G529S compared with SMO-WT; FIG. 7
T1 construct: expressed in transfected cells; host or cells: C3H10T1/2 cells (ATCC), transient transfection with GeneJuice
T1 sequence (Q99835 28-787 G529S): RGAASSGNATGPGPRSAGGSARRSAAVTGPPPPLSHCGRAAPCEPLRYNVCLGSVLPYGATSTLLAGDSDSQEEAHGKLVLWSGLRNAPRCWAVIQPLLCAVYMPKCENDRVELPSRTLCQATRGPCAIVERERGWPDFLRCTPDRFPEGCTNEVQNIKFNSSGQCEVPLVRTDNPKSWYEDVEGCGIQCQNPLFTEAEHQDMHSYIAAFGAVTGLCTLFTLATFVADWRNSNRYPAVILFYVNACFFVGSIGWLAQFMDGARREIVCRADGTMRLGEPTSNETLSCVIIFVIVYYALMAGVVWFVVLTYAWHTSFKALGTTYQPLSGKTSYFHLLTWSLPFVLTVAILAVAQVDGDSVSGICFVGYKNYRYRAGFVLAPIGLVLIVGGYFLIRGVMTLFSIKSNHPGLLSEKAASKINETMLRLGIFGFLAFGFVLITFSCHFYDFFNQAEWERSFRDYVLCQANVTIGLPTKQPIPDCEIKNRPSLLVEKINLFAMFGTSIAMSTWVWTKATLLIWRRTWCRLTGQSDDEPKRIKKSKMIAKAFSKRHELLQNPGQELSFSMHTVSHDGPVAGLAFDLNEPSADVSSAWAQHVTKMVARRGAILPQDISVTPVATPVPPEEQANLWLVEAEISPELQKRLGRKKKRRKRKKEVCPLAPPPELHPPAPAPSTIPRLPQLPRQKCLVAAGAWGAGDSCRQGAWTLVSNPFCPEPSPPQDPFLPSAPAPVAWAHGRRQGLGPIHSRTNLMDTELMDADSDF
Protocol: Six hours later, cells from one well were trypsinized and redistributed over four wells of a 12-well plate. After 16 hours the FBS content of the culture medium was reduced to 0.5% to induce formation of primary cilia, and small molecule Hh inhibitors were added at indicated concentrations. Firefly luciferase activity was determined 24 hours later with the Dual-Glo Luciferase Assay System (Promega) and read using a Wallac EnVision plate reader (Perkin Elmer). Values were divided by renilla luciferase activities to normalize for transfection efficiency. Individual experiments were carried out in duplicate or triplicate and repeated at least once. Dose response data were fit to a 4-parameter equation in GraphPad Prism: […]

SMO-D473H = SMO-D473H (Homo sapiens, UniProt Q99835, D473H); conditions: SMO-D473H mutation from relapsed metastatic MB tumor; cited from earlier work
Sequence of SMO-D473H (Q99835 28-787 D473H): as the sequence (Q99835 28-787 G529S) above, with D446H, S502G counted along it

advanced BCC = conditions: cited from earlier work
medulloblastoma = conditions: one patient; initial response, then no durable response and relapse of the tumor (Rudin et al., 2009); cited from earlier work

Which “first PR on target lesions” value ([1]; patient 001, 150 mg vismodegib) does the source give for `CS(=O)(=O)c1ccc(C(=O)Nc2ccc(Cl)c(-c3ccccn3)c2)c(Cl)c1` [vismodegib] here?
The value was 397 Study day.

What about the “overall response assessment revealed disease progression” value ([1]; patient 001, 150 mg vismodegib) of the same compound?
Its value is 516 Study Day.

And the “overall response assessment showed disease progression” value ([1]; patient 002, 150 mg vismodegib)?
The value was 399 Study Day.

What about the “first PR” value ([1]; patient 002, 150 mg vismodegib, cycle 7) of the same compound?
The value was 172 Study day.

What about the “overall response assessment showed progressive disease” value ([1]; patient 005, 150 mg vismodegib) of the same compound?
Its value is 336 Study Day.

And the “overall response assessment showed disease progression” value ([1]; patient 008, 150 mg vismodegib)?
Its value is 673 Study Day.

And the “overall response assessment revealed progressive disease” value ([1]; patient 011, 150 mg vismodegib)?
The value was 310 Study Day.

What about the response during treatment ([1]; patient 011, 150 mg vismodegib, cycle 11, Study day 282) of the same compound?
Its response during treatment is “stable disease”.

What about the “sensitivity to vismodegib (Gli-luciferase reporter activity)” value (SMO-G529S) of the same compound?
Its value is “reduced sensitivity”.

And the “drug binding in vitro” value (SMO-D473H)?
The value was “abrogate drug binding”.

What about the “clinical outcome of treated BCC patients” value (advanced BCC; majority of BCC patients (Sekulic et al., 2012)) of the same compound?
The value was “clinical benefit, including both complete and partial responses”.

And the “advanced BCC patients developing resistance to vismodegib” value (advanced BCC; within the first year of treatment, preliminary estimate (Chang and Oro, 2012))?
Its value is “up to 20%”.

And the response to treatment (medulloblastoma)?
Its response to treatment is “dramatic response”.
